Source: paper PMC8596843, “Platinum Cyclooctadiene Complexes with Activity against Gram‐positive Bacteria” (Chemmedchem, 2021)

Legend:
[1] = tested on: HEK-293 ATCC CRL-1573 human embryonic kidney cells; format: cell-based
Procedure: As part of the CO‐ADD screening, all compounds that show any activity against a microbial strain are evaluated for their cytotoxicity against human embryonic kidney cells (HEK‐293) and for haemolysis against human red blood cells. None of the compounds tested for cytotoxicity (Pt1‐9 and Pd1) caused any significant cell death up to concentrations of 100 μM. […] We have also observed higher IC50 values for the methylated complexes Pt3 and Pt4 against HeLa cells in previous work.[16] […]
(§1) inhibitors as positive control.
(§2) Tamoxifen (Sigma T5648) was used
(§3) as internal control on each plate.
in a Neubauer haemocytometer. […]

human red blood cells = test: Haemolysis assay; format: cell-based
Procedure: As part of the CO‐ADD screening, all compounds that show any activity against a microbial strain are evaluated for their cytotoxicity against human embryonic kidney cells (HEK‐293) and for haemolysis against human red blood cells. None of the compounds tested for cytotoxicity (Pt1‐9 and Pd1) caused any significant cell death up to concentrations of 100 μM. […] We have also observed higher IC50 values for the methylated complexes Pt3 and Pt4 against HeLa cells in previous work.[16]
(§4) The resultant mid-log phase cultures were diluted
(§5) Gram-negative and Gram-positive bacteria, respectively.
(§6) final concentration range of 0.8 – 100 µM.
as §1, §2, §3
in a Neubauer haemocytometer.
incubated for 1 h at 37 °C, without shaking.
HC10 and HC50 (concentration at which 10%
for top, bottom and slope using Prism 8. […]

[2] = tested on: B. subtilis ATCC 6051 type strain; test: MIC in the presence of human serum (serum reversal); format: cell-based, Bacillus subtilis; settings: 10% serum
From the text: (§7) To obtain some initial insight into the apparent disparity between in vitro and in vivo results, we repeated the MIC experiments against four selected Gram‐positive strains in the presence of 10 % or 50 % human serum (Table S3). Pt1 and Pt2 maintained some antibacterial activity against B. subtilis in the presence of 10 % serum, but a complete loss of activity was observed against MRSA and GISA (50 % serum), and VRE (10 % serum). […] Systemic administration is therefore unlikely to be a suitable administration route for this class of compounds unless an alternative formulation that can prevent serum binding (e. g. by lipid or nanoparticle encapsulation) can be found. […] Further in vivo studies should therefore focus on more suitable disease models. […]
(§8) Antibacterial minimum inhibitory concentration (MIC) assay
(§9) concentration. (in-house screening)
(§10) Bacto Laboratories 212322) at 37 °C overnight.
as §4, §5, §6
(§11) inhibitors as positive control. […]

[3] = tested on: Staphylococcus aureus VRS 1, VRSA (VanA); test: Antibacterial MIC assay, Gram-positive panel; format: cell-based; settings: Table S1 panel; n=4
From the text: (§12) Bis(dimethyl-η4)-((1Z,1'E,5Z,5'E)-(1,1'-bi(cyclooctadiene))diplatinum(II) (Pt14) Smiles: C1C=CCCC(=CC1)C1=CCCC=CCC1.C[Pt]C.C[Pt]C
(§13) InChIKey: PHIWIZAHOBWKFJ-HPCBIOCFSA-N
(§14) Link to selected data that was repeated to approve the identity of the compounds: https://dx.doi.org/10.14272/PHIWIZAHOBWKFJ-HPCBIOCFSA-N.1
(§15) ATCC strains were sourced from the American Type Culture Collection and NRS strains from NARSA (Network on Antimicrobial Resistance in Staphylococcus aureus) via BEI Resources (www.beiresources.org), with clinical MSSA and MRSA isolates from Prof Graeme Nimmo, Queensland […]
(§16) Health Central Pathology. […]
as §8
(§17) Compound Assay Plate Preparation: Compounds were dissolved in DMSO at 10mM (CO-ADD screening) or 4 mM (follow up screening) and were plated in a 2-fold dose response from 20 to 0.156 µM or 200 to 0.006 µM respectively, with a maximum of 0.5% or 1% DMSO, final in the assay […]
(§18) plated in a 2-fold dose response from 200 to 0.006 µM, with a maximum of 1 % DMSO, final in the assay concentration. (in-house screening)
(§19) For all the bacterial assays, each strain was cultured in Cation-adjusted Mueller Hinton broth (CAMHB; Bacto Laboratories 212322) at 37 °C overnight. A sample of each culture was then diluted 40-fold in fresh CAMHB and incubated at 37 °C for 1.5–3 h. The resultant mid-log phase cultures were diluted with CAMHB (CFU mL−1 measured by OD600), then added to each well of the compound-containing plates (384-well non-binding surface (NBS) plates; Corning CLS3640), giving a cell density of 5 × 10^5 CFU mL−1 and a total volume of 50 μL. Plates were covered and incubated at 37 °C for 18 h without shaking. Inhibition of bacterial growth was determined measuring absorbance at 600 nm (OD600), using media only as negative control and bacteria without inhibitors as positive control. MIC values were determined as the lowest concentration at which the growth was inhibited at ≥80%. Colistin sulfate (Sigma C4461) and vancomycin HCl (Sigma 861987) were used as internal controls on each plate for Gram-negative and Gram-positive bacteria, respectively. […]

[4] = tested on: Staphylococcus aureus ATCC 25923, MSSA; test: Antibacterial MIC assay, Gram-positive panel; format: cell-based; settings: Table S1 panel; n=4
From the text: as §12, §13, §14, §15, §16, §8, §17, §18, §19

[5] = tested on: E. faecium ATCC 51559 MDR, VRE; test: MIC in the presence of human serum (serum reversal); format: cell-based, Enterococcus faecium; settings: 10% serum
From the text: as §7, §8, §9, §10, §4, §5, §6, §11

[6] = tested on: E. coli lpxC (non‐efficient lipid A production mutant); test: MIC against E. coli membrane mutants; format: cell-based, Escherichia coli; settings: Table S2
Procedure: as §8, §9, §10, §4, §5, §6, §11

S. aureus NRS 17 GISA = test: MIC in the presence of human serum (serum reversal); format: cell-based, Staphylococcus aureus; settings: 50% serum
From the text: as §7, §8, §9, §10, §4, §5, §6, §11

[7] = tested on: S. aureus ATCC 43300 MRSA; test: as above; format: cell-based, Staphylococcus aureus; settings: 50% serum
From the text: as §7, §8, §9, §10, §4, §5, §6, §11

[8] = tested on: Enterococcus faecalis ATCC 29212, control strain; test: Antibacterial MIC assay, Gram-positive panel; format: cell-based; settings: Table S1 panel; n=4
Procedure: (§20) Smiles: C1C=CCCC(=CC1)C1=CCCC=CCC1.C[Pt]C.C[Pt]C […]
as §15, §16, §8, §17, §18, §19

[9] = tested on: Enterococcus faecium ATCC 51559, MDR, VRE (VanA); test: Antibacterial MIC assay, Gram-positive panel; format: cell-based; settings: Table S1 panel; n=2
Procedure: as §20, §15, §16, §8, §17, §18, §19

[10] = tested on: Bacillus subtilis ATCC 6051, type strain; test: Antibacterial MIC assay, Gram-positive panel; format: cell-based; settings: Table S1 panel; n=2
Procedure: as §20, §15, §16, §8, §17, §18, §19

[11] = tested on: Enterococcus faecium Clinical Isolate, VRE (VanA); test: Antibacterial MIC assay, Gram-positive panel; format: cell-based; settings: Table S1 panel; n=4
Procedure: as §20, §15, §16, §8, §17, §18, §19

[12] = tested on: Enterococcus faecalis Clinical Isolate, VRE (VanB); test: Antibacterial MIC assay, Gram-positive panel; format: cell-based; settings: Table S1 panel; n=4
Procedure: as §20, §15, §16, §8, §17, §18, §19

[13] = tested on: Enterococcus faecium ATCC 35667, type strain; test: Antibacterial MIC assay, Gram-positive panel; format: cell-based; settings: Table S1 panel; n=4
Procedure: as §20, §15, §16, §8, §17, §18, §19

[14] = tested on: Staphylococcus epidermidis ATCC 14990, type strain; test: Antibacterial MIC assay, Gram-positive panel; format: cell-based; settings: Table S1 panel; n=4
Procedure: as §20, §15, §16, §8, §17, §18, §19

Row | SMILES | HEK‐293 CC50 [1] | Haemolysis HC10 (human red blood cells; concentration inducing 10 % haemolysis) [µM] | Haemolysis HC50 (human red blood cells; concentration inducing 50 % haemolysis) [µM] | MIC in the presence of human serum [2] [µM] | MIC [3] [µM] | MIC [4] [µM] | MIC in the presence of human serum [5] [µM] | CC50 [1] [µM] | MIC E. coli lpxC [6] [µM] | MIC in the presence of human serum (S. aureus NRS 17 GISA) [µM] | MIC in the presence of human serum [7] [µM] | MIC [8] [µM] | MIC [9] [µM] | MIC [10] [µM] | MIC [11] [µM] | MIC [12] [µM] | MIC [13] [µM] | MIC [14] [µM]
1 | CC/C(=C(\c1ccccc1)c1ccc(OCCN(C)C)cc1)c1ccccc1 [Tamoxifen, reference compound] | 34.75–30.55 | – | – | – | – | – | – | – | – | – | – | – | – | – | – | – | – | –
2 | C1=C\CC/C=C\CC/1.[Cl][Pd][Cl] [Pd1] | – | 7.76 | 10.14 | > 200 | > 200 | 200 | > 200 | > 100 | > 200 | > 200 | > 200 | > 200 | 200 | > 200 | > 200 | > 200 | > 200 | 100
